Reference: US20180148418A1, “AMIDO-SUBSTITUTED CYCLOHEXANE DERIVATIVES” (Bayer Pharma Aktiengesellschaft, priority 2015, published 2018)
pIC50: −log10 of the molar value.

Legend:
[1] = system: HEK293 cells cotransfected with the FOP control vector; assay: HEK293 FOP assay (control reporter with non-functional TCF elements); format: cell-based; details: Homo sapiens, 16 hours
In short: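 Stable HEK293 line carrying FOP control reporter (randomized non-functional TCF sites, with pcDNA3), Geneticin-selected, plated 24 h before assay. Stimulated with recombinant human Wnt-3a (2500-5 ng/ml) and compounds 50 μM–15 nM (3.16-fold steps) in CAFTY buffer pH 7.4 with 2 mM Ca2+, 0.01% BSA, run parallel to TOP line.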

TNKS1 = molecular target: T1, TNKS1 (Homo sapiens, UniProt O95271); assay: TNKS1 Assay B (auto-parsylation, [3H]-NAD+ SPA); format: biochemical; details: 6 nM TNKS1, auto-parsylation, over night at room temperature
T1 construct: purchased BPS Bioscience, San Diego, USA 80579 (TNKS1 Histone Ribosylation Assay Kit)
T1 sequence (O95271 1-1327): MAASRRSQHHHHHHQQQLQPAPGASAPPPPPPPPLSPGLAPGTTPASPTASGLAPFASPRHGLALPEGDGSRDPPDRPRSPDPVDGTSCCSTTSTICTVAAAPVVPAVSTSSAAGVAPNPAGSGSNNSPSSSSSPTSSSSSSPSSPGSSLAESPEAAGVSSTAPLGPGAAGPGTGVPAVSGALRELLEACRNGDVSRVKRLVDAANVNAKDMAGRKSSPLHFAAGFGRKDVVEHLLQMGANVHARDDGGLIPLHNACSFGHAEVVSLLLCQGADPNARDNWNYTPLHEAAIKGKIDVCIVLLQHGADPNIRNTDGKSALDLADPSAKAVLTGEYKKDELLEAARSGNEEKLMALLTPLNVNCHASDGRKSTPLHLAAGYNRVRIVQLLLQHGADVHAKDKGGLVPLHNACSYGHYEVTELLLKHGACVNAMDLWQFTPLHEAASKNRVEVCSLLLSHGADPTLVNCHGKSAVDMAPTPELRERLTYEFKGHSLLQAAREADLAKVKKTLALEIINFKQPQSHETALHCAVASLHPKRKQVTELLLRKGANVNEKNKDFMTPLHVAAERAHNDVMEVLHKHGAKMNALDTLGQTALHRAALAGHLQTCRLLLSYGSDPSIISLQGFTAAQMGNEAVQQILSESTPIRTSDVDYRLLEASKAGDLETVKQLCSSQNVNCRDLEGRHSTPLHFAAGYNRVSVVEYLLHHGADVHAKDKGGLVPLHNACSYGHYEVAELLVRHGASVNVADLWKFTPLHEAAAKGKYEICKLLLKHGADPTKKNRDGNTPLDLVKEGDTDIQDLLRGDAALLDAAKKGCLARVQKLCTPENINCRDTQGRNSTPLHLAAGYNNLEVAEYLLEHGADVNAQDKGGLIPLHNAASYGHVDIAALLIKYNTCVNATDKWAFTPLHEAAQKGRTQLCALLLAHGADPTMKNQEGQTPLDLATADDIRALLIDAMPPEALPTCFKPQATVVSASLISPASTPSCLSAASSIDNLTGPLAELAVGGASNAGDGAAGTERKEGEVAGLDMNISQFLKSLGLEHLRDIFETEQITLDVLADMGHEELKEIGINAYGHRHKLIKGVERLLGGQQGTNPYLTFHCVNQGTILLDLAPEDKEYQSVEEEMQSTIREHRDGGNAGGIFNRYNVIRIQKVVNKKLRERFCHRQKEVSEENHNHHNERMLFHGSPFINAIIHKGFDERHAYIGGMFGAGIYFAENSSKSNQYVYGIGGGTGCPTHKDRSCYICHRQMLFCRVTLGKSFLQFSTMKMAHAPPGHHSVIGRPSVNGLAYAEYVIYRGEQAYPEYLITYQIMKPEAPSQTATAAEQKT

SMILES	pIC50 (TNKS1)	pIC50 [1]
O=C(N[C@H]1CC[C@@]2(CCN(c3ccc(F)cc3Cl)C2=O)CC1)c1[nH]cnc1C(=O)N1CCN(CC(F)(F)F)CC1 [Example 167, N-[(trans)-2-(2-chloro-4-fluorophenyl)-1-oxo-2-azaspiro[4.5]dec-8-yl]-4-{[4-(2,2,2-trifluoroethyl)piperazin-1-yl]carbonyl}-1H-imidazole-5-carboxamide]	6.18	≤ 4.30
CNC(=O)c1nc[nH]c1C(=O)N[C@H]1CC[C@@]2(CCN(c3cccc(Cl)c3)C2=O)CC1 [Example 276, N^5-[(trans)-2-(3-chlorophenyl)-1-oxo-2-azaspiro[4.5]dec-8-yl]-N^4-methyl-1H-imidazole-4,5-dicarboxamide]	6.74	4.49
COCCNC(=O)c1nc[nH]c1C(=O)N[C@H]1CC[C@@]2(CCN(c3cccc(Cl)c3)C2=O)CC1 [Example 282, N^5-[(trans)-2-(3-chlorophenyl)-1-oxo-2-azaspiro[4.5]dec-8-yl]-N^4-(2-methoxyethyl)-1H-imidazole-4,5-dicarboxamide]	6.51	5.10
CNC(=O)c1nc[nH]c1C(=O)N[C@H]1CC[C@]2(CCN(c3ccc(F)cc3Cl)C2=O)CC1 [Example 182, N^5-[(cis)-2-(2-chloro-4-fluorophenyl)-1-oxo-2-azaspiro[4.5]dec-8-yl]-N^4-methyl-1H-imidazole-4,5-dicarboxamide]	5.66	≤ 4.30
CNC(=O)c1nc[nH]c1C(=O)N[C@H]1CC[C@H](C(=O)N(C)c2ccc(F)cc2Cl)CC1 [Example 173, N^5-{trans-4-[(2-chloro-4-fluorophenyl)(methyl)carbamoyl]cyclohexyl}-N^4-methyl-1H-imidazole-4,5-dicarboxamide]	6.70	≤ 4.30
CNC(=O)c1nc[nH]c1C(=O)N[C@H]1CC[C@H](C(=O)Nc2cccnc2Cl)CC1 [Example 10, N^5-{trans-4-[(2-chloropyridin-3-yl)carbamoyl]cyclohexyl}-N^4-methyl-1H-imidazole-4,5-dicarboxamide]	6.60	≤ 4.30
CNC(=O)c1nc[nH]c1C(=O)N[C@H]1CC[C@H](C(=O)N(C)c2ccccc2C)CC1 [Example 203, N^4-methyl-N^5-{trans-4-[methyl(2-methylphenyl)carbamoyl]cyclohexyl}-1H-imidazole-4,5-dicarboxamide]	6.20	≤ 4.30
Cc1cc(N(C)C(=O)[C@H]2CC[C@H](NC(=O)c3cnn4cccnc34)CC2)c(Cl)cc1F [Example 176, N-{trans-4-[(2-chloro-4-fluoro-5-methylphenyl)(methyl)carbamoyl]cyclohexyl}pyrazolo[1,5-a]pyrimidine-3-carboxamide]	6.80	5.28
CNC(=O)c1nc[nH]c1C(=O)N[C@H]1CC[C@H](C(=O)N(C)c2ccccc2)CC1 [Example 171, N^4-methyl-N^5-{trans-4-[methyl(phenyl)carbamoyl]cyclohexyl}-1H-imidazole-4,5-dicarboxamide]	6.40	≤ 4.30
Cc1ccccc1N(C)C(=O)[C@H]1CC[C@H](NC(=O)c2cnn3cccnc23)CC1 [Example 178, N-{trans-4-[methyl(2-methylphenyl)carbamoyl]cyclohexyl}pyrazolo[1,5-a]pyrimidine-3-carboxamide]	6.48	≤ 4.30

Stronger by pIC50 (TNKS1), values ahead:

pIC50 (TNKS1)	SMILES	pIC50 [1]
7.85	Cc1cc(C(F)F)n2ncc(C(=O)N[C@H]3CC[C@@]4(CCN(c5ccc(F)cc5Cl)C4=O)CC3)c2n1 [Example 224, N-[(trans)-2-(2-chloro-4-fluorophenyl)-1-oxo-2-azaspiro[4.5]dec-8-yl]-7-(difluoromethyl)-5-methylpyrazolo[1,5-a]pyrimidine-3-carboxamide]	≤ 4.30
7.03	O=C(NCCO)c1nc[nH]c1C(=O)N[C@H]1CC[C@H](C(=O)Nc2ccc(F)cc2Cl)CC1 [Example 18, N^5-{trans-4-[(2-chloro-4-fluorophenyl)carbamoyl]cyclohexyl}-N^4-(2-hydroxyethyl)-1H-imidazole-4,5-dicarboxamide]	≤ 4.30
7.89	CCNC(=O)c1nc[nH]c1C(=O)N[C@H]1CC[C@@]2(CCN(c3ccccc3Cl)C2=O)CC1 [Example 258, N^5-[(trans)-2-(2-chlorophenyl)-1-oxo-2-azaspiro[4.5]dec-8-yl]-N^4-ethyl-1H-imidazole-4,5-dicarboxamide]	≤ 4.30
7.43	O=C(NCC(F)(F)F)c1nc[nH]c1C(=O)N[C@H]1CC[C@H](C(=O)Nc2ccc(F)cc2Cl)CC1 [Example 21, N^5-{trans-4-[(2-chloro-4-fluorophenyl)carbamoyl]cyclohexyl}-N^4-(2,2,2-trifluoroethyl)-1H-imidazole-4,5-dicarboxamide]	≤ 4.30
8.00	CN1CC2(CCN(C(=O)c3nc[nH]c3C(=O)N[C@H]3CC[C@@]4(CCN(c5ccc(F)cc5Cl)C4=O)CC3)C2)C1 [Example 184, N-[(trans)-2-(2-chloro-4-fluorophenyl)-1-oxo-2-azaspiro[4.5]dec-8-yl]-4-[(2-methyl-2,6-diazaspiro[3.4]oct-6-yl)carbonyl]-1H-imidazole-5-carboxamide]	≤ 4.30
7.92	CN1CC(NC(=O)c2nc[nH]c2C(=O)N[C@H]2CC[C@@]3(CCN(c4ccc(F)cc4Cl)C3=O)CC2)C1 [Example 187, N^5-[(trans)-2-(2-chloro-4-fluorophenyl)-1-oxo-2-azaspiro[4.5]dec-8-yl]-N^4-(1-methylazetidin-3-yl)-1H-imidazole-4,5-dicarboxamide]	≤ 4.30
7.70	CNC(=O)c1nc[nH]c1C(=O)N[C@H]1CC[C@@]2(CCN(c3ccccc3Cl)C2=O)CC1 [Example 264, N^5-[(trans)-2-(2-chlorophenyl)-1-oxo-2-azaspiro[4.5]dec-8-yl]-N^4-methyl-1H-imidazole-4,5-dicarboxamide]	4.48
7.74	NC(=O)c1nc[nH]c1C(=O)N[C@H]1CC[C@@]2(CCN(c3ccc(F)cc3Cl)C2=O)CC1 [Example 186, N^5-[(trans)-2-(2-chloro-4-fluorophenyl)-1-oxo-2-azaspiro[4.5]dec-8-yl]-1H-imidazole-4,5-dicarboxamide]	≤ 4.30
7.08	O=C(NC1CC1)c1nc[nH]c1C(=O)N[C@H]1CC[C@H](C(=O)Nc2ccc(F)cc2Cl)CC1 [Example 17, N^5-{trans-4-[(2-chloro-4-fluorophenyl)carbamoyl]cyclohexyl}-N^4-cyclopropyl-1H-imidazole-4,5-dicarboxamide]	≤ 4.30
7.28	CCNC(=O)c1nc[nH]c1C(=O)N[C@H]1CC[C@H](C(=O)Nc2ccc(F)cc2Cl)CC1 [Example 15, N^5-{trans-4-[(2-chloro-4-fluorophenyl)carbamoyl]cyclohexyl}-N^4-ethyl-1H-imidazole-4,5-dicarboxamide]	≤ 4.30
8.00	Cc1cc(C)n2ncc(C(=O)N[C@H]3CC[C@@]4(CCN(c5ccccc5Cl)C4=O)CC3)c2n1 [Example 257, N-[(trans)-2-(2-chlorophenyl)-1-oxo-2-azaspiro[4.5]dec-8-yl]-5,7-dimethylpyrazolo[1,5-a]pyrimidine-3-carboxamide]	≤ 4.30
8.07	O=C(N[C@H]1CC[C@@]2(CCN(c3ccc(F)cc3Cl)C2=O)CC1)c1cnn2ccc(N3CCCC3)nc12 [Example 232, N-[(trans)-2-(2-chloro-4-fluorophenyl)-1-oxo-2-azaspiro[4.5]dec-8-yl]-5-(pyrrolidin-1-yl)pyrazolo[1,5-a]pyrimidine-3-carboxamide]	≤ 4.30
7.92	O=C(N[C@H]1CC[C@@]2(CCN(c3ccccc3Cl)C2=O)CC1)c1cnn2cccnc12 [Example 256, N-[(trans)-2-(2-chlorophenyl)-1-oxo-2-azaspiro[4.5]dec-8-yl]pyrazolo[1,5-a]pyrimidine-3-carboxamide]	≤ 4.30
